In patent publication US20260092071A1, “COMPOUNDS AND COMPOSITIONS AS SMARCA2/4 DEGRADERS AND USES THEREOF” (REGENTS OF THE UNIVERSITY OF MICHIGAN, priority 2022, published 2026):

Legend:
SMARCA2 = SMARCA2 (Homo sapiens, UniProt P51531); test: HiBit assay in engineered HT1080 CRISPR knock-in cell, 6 hrs (B series), SMARCA2; format: cell-based; details: 6 hrs incubation; for DC50: HT1080 CRISPR knock-in cells, read-out: SMARC A2 HT1080 HiBit DC50; for Dmax: HT-1080, HT1080 CRISPR knock-in cells, read-out: SMARC A2 HT1080 HiBit Dmax (%)
In short: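 HT1080 CRISPR knock-in cells carrying the HiBiT tag were seeded onto compounds (final DMSO 0.1%) and incubated 6 hrs at 37° C, 5% CO2. Remaining tagged protein was detected by lytic HiBiT luminescence after adding LgBiT protein and substrate, with LgBiT-free wells serving as negative control.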

SMARCA4 = SMARCA4 (Homo sapiens, UniProt P51532); test: HiBit assay in engineered HT1080 CRISPR knock-in cell, 6 hrs (B series), SMARCA4; format: cell-based; details: 6 hrs incubation; for DC50: HT1080 CRISPR knock-in cells, read-out: SMARC A4 HT1080 HiBit DC50; for Dmax: HT-1080, HT1080 CRISPR knock-in cells, read-out: SMARC A4 HT1080 HiBit Dmax(%)
In short: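 Compounds were dispensed first, then HT1080 knock-in cells added and incubated for 6 hrs at 37° C. Next, detection reagent containing LgBiT and lytic substrate was added. Plates were shaken 10 min and centrifuged, and luminescence was measured.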

Chain of SMARCA4 (P51532 whole entry): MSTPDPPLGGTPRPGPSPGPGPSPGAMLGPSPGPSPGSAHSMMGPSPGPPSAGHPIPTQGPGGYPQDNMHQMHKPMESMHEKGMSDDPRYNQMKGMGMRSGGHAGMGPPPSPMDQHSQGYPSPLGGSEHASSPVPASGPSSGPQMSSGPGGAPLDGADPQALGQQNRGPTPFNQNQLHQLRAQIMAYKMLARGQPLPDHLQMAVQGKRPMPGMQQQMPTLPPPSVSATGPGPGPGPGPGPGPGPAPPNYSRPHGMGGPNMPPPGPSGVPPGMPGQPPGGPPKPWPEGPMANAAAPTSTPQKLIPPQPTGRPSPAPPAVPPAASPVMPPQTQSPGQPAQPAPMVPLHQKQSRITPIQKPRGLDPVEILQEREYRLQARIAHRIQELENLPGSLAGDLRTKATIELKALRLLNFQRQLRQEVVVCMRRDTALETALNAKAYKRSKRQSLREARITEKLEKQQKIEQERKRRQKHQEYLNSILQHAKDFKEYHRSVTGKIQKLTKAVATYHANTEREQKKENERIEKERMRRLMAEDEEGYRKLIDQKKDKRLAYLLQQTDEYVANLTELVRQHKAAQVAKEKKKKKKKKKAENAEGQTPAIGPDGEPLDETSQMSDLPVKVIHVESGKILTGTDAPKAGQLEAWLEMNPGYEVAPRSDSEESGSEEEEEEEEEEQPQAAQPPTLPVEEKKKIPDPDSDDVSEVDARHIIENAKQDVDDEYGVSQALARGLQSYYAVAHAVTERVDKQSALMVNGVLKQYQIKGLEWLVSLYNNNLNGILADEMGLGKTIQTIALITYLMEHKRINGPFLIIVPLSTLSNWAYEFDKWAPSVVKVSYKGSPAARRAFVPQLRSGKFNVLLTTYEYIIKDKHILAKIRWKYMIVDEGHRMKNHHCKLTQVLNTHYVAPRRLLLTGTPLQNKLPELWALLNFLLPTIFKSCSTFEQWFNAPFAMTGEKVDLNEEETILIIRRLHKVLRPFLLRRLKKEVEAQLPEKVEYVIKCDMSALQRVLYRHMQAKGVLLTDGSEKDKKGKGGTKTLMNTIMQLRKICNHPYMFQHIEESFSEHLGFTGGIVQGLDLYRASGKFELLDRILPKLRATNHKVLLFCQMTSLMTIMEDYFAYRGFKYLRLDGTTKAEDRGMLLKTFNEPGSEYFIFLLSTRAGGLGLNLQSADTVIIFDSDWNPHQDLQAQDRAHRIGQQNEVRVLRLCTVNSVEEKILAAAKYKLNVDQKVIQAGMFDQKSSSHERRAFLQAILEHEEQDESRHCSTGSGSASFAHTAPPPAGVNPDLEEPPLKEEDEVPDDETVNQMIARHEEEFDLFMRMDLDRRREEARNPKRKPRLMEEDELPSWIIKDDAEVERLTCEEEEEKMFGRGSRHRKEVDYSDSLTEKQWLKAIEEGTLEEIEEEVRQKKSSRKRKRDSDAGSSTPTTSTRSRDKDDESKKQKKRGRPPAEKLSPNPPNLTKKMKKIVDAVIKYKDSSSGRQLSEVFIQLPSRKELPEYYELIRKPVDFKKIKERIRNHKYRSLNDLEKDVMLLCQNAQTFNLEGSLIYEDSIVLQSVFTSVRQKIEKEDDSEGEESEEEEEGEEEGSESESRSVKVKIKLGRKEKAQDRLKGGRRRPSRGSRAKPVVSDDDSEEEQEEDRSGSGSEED
Chain of SMARCA2 (P51531 whole entry): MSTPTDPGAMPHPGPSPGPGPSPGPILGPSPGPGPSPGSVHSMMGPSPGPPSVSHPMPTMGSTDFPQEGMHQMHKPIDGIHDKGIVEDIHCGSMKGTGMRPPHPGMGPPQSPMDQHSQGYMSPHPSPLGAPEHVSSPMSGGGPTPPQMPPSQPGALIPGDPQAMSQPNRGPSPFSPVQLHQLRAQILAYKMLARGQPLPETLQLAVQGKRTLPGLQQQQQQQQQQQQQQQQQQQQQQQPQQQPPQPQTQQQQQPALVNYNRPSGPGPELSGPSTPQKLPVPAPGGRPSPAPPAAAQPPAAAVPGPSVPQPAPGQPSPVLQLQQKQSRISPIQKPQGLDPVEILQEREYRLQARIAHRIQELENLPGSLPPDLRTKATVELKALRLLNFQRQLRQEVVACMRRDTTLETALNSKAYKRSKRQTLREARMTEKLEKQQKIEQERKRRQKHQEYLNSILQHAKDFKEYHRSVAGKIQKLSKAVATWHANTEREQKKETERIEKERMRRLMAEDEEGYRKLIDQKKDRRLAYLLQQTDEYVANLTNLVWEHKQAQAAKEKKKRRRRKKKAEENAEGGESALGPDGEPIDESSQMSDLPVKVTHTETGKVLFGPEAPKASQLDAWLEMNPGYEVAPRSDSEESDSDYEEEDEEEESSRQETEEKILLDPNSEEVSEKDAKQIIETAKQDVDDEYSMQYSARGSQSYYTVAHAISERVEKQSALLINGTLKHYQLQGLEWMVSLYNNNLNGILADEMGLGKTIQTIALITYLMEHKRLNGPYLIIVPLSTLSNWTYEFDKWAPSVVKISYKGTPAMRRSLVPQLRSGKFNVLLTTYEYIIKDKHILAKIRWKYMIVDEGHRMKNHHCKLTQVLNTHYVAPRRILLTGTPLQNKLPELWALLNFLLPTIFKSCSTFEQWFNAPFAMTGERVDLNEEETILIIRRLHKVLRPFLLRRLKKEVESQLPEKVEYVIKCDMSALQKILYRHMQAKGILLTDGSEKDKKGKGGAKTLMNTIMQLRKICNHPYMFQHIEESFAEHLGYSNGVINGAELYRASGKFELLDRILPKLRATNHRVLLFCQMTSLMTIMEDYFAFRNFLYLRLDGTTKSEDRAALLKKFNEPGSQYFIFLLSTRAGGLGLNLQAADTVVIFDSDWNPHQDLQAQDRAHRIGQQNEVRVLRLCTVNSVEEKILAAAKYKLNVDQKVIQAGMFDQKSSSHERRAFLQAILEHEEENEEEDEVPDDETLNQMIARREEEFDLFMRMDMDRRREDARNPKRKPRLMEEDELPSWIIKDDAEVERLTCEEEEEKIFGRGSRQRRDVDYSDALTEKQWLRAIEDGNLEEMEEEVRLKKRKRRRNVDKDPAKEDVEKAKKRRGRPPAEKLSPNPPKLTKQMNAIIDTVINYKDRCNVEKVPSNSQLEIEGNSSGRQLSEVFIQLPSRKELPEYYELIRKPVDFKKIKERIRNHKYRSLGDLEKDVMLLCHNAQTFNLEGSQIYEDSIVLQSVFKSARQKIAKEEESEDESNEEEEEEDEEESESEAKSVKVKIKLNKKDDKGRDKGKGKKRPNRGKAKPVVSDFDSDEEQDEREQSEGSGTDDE

## C[C@H](NC(=O)[C@@H]1C[C@@H](O)CN1C(=O)[C@@H](NC(=O)[C@H]1CC[C@H](C(=O)N2CCC(c3ccc4c(c3)-n3c(nc(=O)c5c(Cl)cccc53)C4(C)C)CC2)CC1)C(C)(C)C)c1ccc(-c2ncnn2C)cc1 [Compound B65, (2S,4R)-1-((S)-2-((1r,4S)-4-(4-(4-chloro-7,7-dimethyl-5-oxo-5,7-dihydroindolo[1,2-a]quinazolin-10-yl)piperidine-1-carbonyl)cyclohexane-1-carboxamido)-3,3-dimethylbutanoyl)-4-hydroxy-N-((S)-1-(4-(1-methyl-1H-1,2,4-triazol-5-yl)phenyl)ethyl)pyrrolidine-2-carboxamide]
SMARCA2
  DC50: 100 to 500 nM
  Dmax: < 50%
SMARCA4
  DC50: > 1000 nM
  Dmax: < 50%

## Cc1ncsc1-c1ccc([C@H](C)NC(=O)[C@@H]2C[C@@H](O)CN2C(=O)[C@@H](NC(=O)CN2CCC(c3ccc4c(c3)C(C)(C)c3nc(=O)c5c(Cl)cccc5n3-4)CC2)C(C)(C)C)cc1 [Compound B6, (2S,4R)-1-((S)-2-(2-(4-(4-chloro-7,7-dimethyl-5-oxo-5,7-dihydroindolo[1,2-a]quinazolin-9-yl)piperidin-1-yl)acetamido)-3,3-dimethylbutanoyl)-4-hydroxy-N—((S)-1-(4-(4-methylthiazol-5-yl)phenyl)ethyl)pyrrolidine-2-carboxamide]
SMARCA2
  DC50: < 100 nM
  Dmax: > 90%
SMARCA4
  DC50: < 100 nM
  Dmax: > 90%

## Cc1ncsc1-c1ccc([C@H](CCCCCn2cc(-c3ccc4c(c3)C(C)(C)c3nc(=O)c5c(Cl)cccc5n3-4)cn2)NC(=O)[C@@H]2C[C@@H](O)CN2C(=O)[C@@H](NC(=O)C2(F)CC2)C(C)(C)C)cc1 [Compound B56, (2S,4R)—N—((S)-6-(4-(4-chloro-7,7-dimethyl-5-oxo-5,7-dihydroindolo[1,2-a]quinazolin-9-yl)-1H-pyrazol-1-yl)-1-(4-(4-methylthiazol-5-yl)phenyl)hexyl)-1-((S)-2-(1-fluorocyclopropane-1-carboxamido)-3,3-dimethylbutanoyl)-4-hydroxypyrrolidine-2-carboxamide]
SMARCA2
  DC50: 100 to 500 nM
  Dmax: < 50%
SMARCA4
  DC50: > 1000 nM
  Dmax: < 50%

## Cc1ncsc1-c1ccc([C@H](CCCCCN2CCC(c3ccc4c(c3)C(C)(C)c3nc(=O)c5c(Br)cccc5n3-4)CC2)NC(=O)[C@@H]2C[C@@H](O)CN2C(=O)[C@@H](NC(=O)C2(C#N)CC2)C(C)(C)C)cc1 [Compound B3, (2S,4R)—N—((S)-6-(4-(4-bromo-7,7-dimethyl-5-oxo-5,7-dihydroindolo[1,2-a]quinazolin-9-yl)piperidin-1-yl)-1-(4-(4-methylthiazol-5-yl)phenyl)hexyl)-1-((S)-2-(1-cyanocyclopropane-1-carboxamido)-3,3-dimethylbutanoyl)-4-hydroxypyrrolidine-2-carboxamide]
SMARCA2
  DC50: < 100 nM
  Dmax: > 90%
SMARCA4
  DC50: < 100 nM
  Dmax: > 90%

## C[C@H](NC(=O)[C@@H]1C[C@@H](O)CN1C(=O)[C@@H](n1cc(C2CCC(CN3CCC(c4ccc5c(c4)-n4c(nc(=O)c6c(Cl)cccc64)C54CCCCC4)CC3)CC2)nn1)C(C)(C)C)c1ccc(-c2scnc2CCCN2CCOCC2)cc1 (stereo partly drawn) [Compound B108, (2S,4R)-1-((S)-2-(4-((11,4S)-4-((4-(4′-chloro-5′-oxo-5′H-spiro[cyclohexane-1,7′-indolo[1,2-a]quinazolin]-10′-yl)piperidin-1-yl)methyl)cyclohexyl)-1H-1,2,3-triazol-1-yl)-3,3-dimethylbutanoyl)-4-hydroxy-N-((S)-1-(4-(4-(3-morpholinopropyl)thiazol-5-yl)phenyl)ethyl)pyrrolidine-2-carboxamide]
SMARCA2
  DC50: 100 to 500 nM
  Dmax: > 90%
SMARCA4
  DC50: 100 to 500 nM
  Dmax: 50 to 69%

## Cc1cc(C(C(=O)N2C[C@H](O)C[C@H]2C(=O)N[C@@H](C)c2ccc(-c3scnc3C#CCN3CCC(c4ccc5c(c4)C(C)(C)c4nc(=O)c6c(Cl)cccc6n4-5)CC3)cc2)C(C)C)on1 (stereo partly drawn) [Compound B144, (2S,4R)—N—((S)-1-(4-(4-(3-(4-(4-chloro-7,7-dimethyl-5-oxo-5,7-dihydroindolo[1,2-a]quinazolin-9-yl)piperidin-1-yl)prop-1-yn-1-yl)thiazol-5-yl)phenyl)ethyl)-4-hydroxy-1-(3-methyl-2-(3-methylisoxazol-5-yl)butanoyl)pyrrolidine-2-carboxamide]
SMARCA2
  DC50: 100 to 500 nM
  Dmax: 50 to 69%
SMARCA4
  DC50: < 100 nM
  Dmax: 50 to 69%

## Cc1ncsc1-c1ccc([C@H](C)NC(=O)[C@@H]2C[C@@H](O)CN2C(=O)[C@@H](c2cc(OCCn3cc(-c4ccc5c(c4)-n4c(nc(=O)c6c(Cl)cccc64)C5(C)C)cn3)no2)C(C)C)cc1 [Compound B60, (2S,4R)-1-(2-(3-(2-(4-(4-chloro-7,7-dimethyl-5-oxo-5,7-dihydroindolo[1,2-a]quinazolin-10-yl)-1H-pyrazol-1-yl)ethoxy)isoxazol-5-yl)-3-methylbutanoyl)-4-hydroxy-N-((S)-1-(4-(4-methylthiazol-5-yl)phenyl)ethyl)pyrrolidine-2-carboxamide]
SMARCA2
  DC50: < 100 nM
  Dmax: < 50%
SMARCA4
  DC50: < 100 nM
  Dmax: < 50%

## Cc1ncsc1-c1ccc([C@H](C)NC(=O)[C@@H]2C[C@@H](O)CN2C(=O)C(c2cc(CCN3CCC(c4ccc5c(c4)C(C)(C)c4nc(=O)c6c(Cl)cccc6n4-5)CC3)no2)C(C)C)cc1 (stereo partly drawn) [Compound B15, (2S,4R)-1-(2-(3-(2-(4-(4-chloro-7,7-dimethyl-5-oxo-5,7-dihydroindolo[1,2-a]quinazolin-9-yl)piperidin-1-yl)ethyl)isoxazol-5-yl)-3-methylbutanoyl)-4-hydroxy-N-((S)-1-(4-(4-methylthiazol-5-yl)phenyl)ethyl)pyrrolidine-2-carboxamide]
SMARCA2
  DC50: < 100 nM
  Dmax: > 90%
SMARCA4
  DC50: < 100 nM
  Dmax: > 90%

## Cc1ncsc1-c1ccc([C@H](C)NC(=O)[C@@H]2C[C@@H](O)CN2C(=O)[C@@H](c2cc(N3CCC(CN4CCC(c5ccc6c(c5)-n5c(nc(=O)c7c(Cl)cccc75)C6(C)C)CC4)CC3)no2)C(C)C)cc1 [Compound B37, (2S,4R)-1-((R)-2-(3-(4-((4-(4-chloro-7,7-dimethyl-5-oxo-5,7-dihydroindolo[1,2-a]quinazolin-10-yl)piperidin-1-yl)methyl)piperidin-1-yl)isoxazol-5-yl)-3-methylbutanoyl)-4-hydroxy-N-((S)-1-(4-(4-methylthiazol-5-yl)phenyl)ethyl)pyrrolidine-2-carboxamide]
SMARCA2
  DC50: < 100 nM
  Dmax: > 90%
SMARCA4
  DC50: < 100 nM
  Dmax: 70 to 90%

## Cc1ncsc1-c1ccc([C@H](CCCCCN2CCC(c3ccc4c(c3)-n3c(nc(=O)c5c(Cl)cccc53)C4(C)C)CC2)NC(=O)[C@@H]2C[C@@H](O)CN2C(=O)[C@@H](NC(=O)C2(F)CC2)C(C)(C)C)cc1 [Compound B21, (2S,4R)-N-((S)-6-(4-(4-chloro-7,7-dimethyl-5-oxo-5,7-dihydroindolo[1,2-a]quinazolin-10-yl)piperidin-1-yl)-1-(4-(4-methylthiazol-5-yl)phenyl)hexyl)-1-((S)-2-(1-fluorocyclopropane-1-carboxamido)-3,3-dimethylbutanoyl)-4-hydroxypyrrolidine-2-carboxamide]
SMARCA2
  DC50: < 100 nM
  Dmax: > 90%
SMARCA4
  DC50: < 100 nM
  Dmax: > 90%

## Cc1ncsc1-c1ccc([C@H](C)NC(=O)[C@@H]2C[C@@H](O)CN2C(=O)[C@H](C(C)C)n2cc(CCCN3CCC(c4ccc5c(c4)C(C)(C)c4nc(=O)c6c(Cl)cccc6n4-5)CC3)nn2)cc1 [Compound B24, (2S,4R)-1-((S)-2-(4-(3-(4-(4-chloro-7,7-dimethyl-5-oxo-5,7-dihydroindolo[1,2-a]quinazolin-9-yl)piperidin-1-yl)propyl)-1H-1,2,3-triazol-1-yl)-3-methylbutanoyl)-4-hydroxy-N—((S)-1-(4-(4-methylthiazol-5-yl)phenyl)ethyl)pyrrolidine-2-carboxamide]
SMARCA2
  DC50: < 100 nM
  Dmax: > 90%
SMARCA4
  DC50: < 100 nM
  Dmax: > 90%

## Cc1cc([C@H](C(=O)N2C[C@H](O)C[C@H]2C(=O)N[C@@H](C)c2ccc(-c3scnc3C(=O)NCCCCOCCN3CCC(c4ccc5c(c4)-n4c(nc(=O)c6c(Cl)cccc64)C5(C)C)CC3)cc2)C(C)C)on1 [Compound B147, N-(4-(2-(4-(4-chloro-7,7-dimethyl-5-oxo-5,7-dihydroindolo[1,2-a]quinazolin-10-yl)piperidin-1-yl)ethoxy)butyl)-5-(4-((S)-1-((2S,4R)-4-hydroxy-1-((R)-3-methyl-2-(3-methylisoxazol-5-yl)butanoyl)pyrrolidine-2-carboxamido)ethyl)phenyl)thiazole-4-carboxamide]
SMARCA2
  DC50: 100 to 500 nM
  Dmax: 50 to 69%
SMARCA4
  DC50: 501 to 1000 nM
  Dmax: 50 to 69%

## Cc1ncsc1-c1ccc([C@H](C)NC(=O)[C@@H]2C[C@@H](O)CN2C(=O)[C@@H](c2cc(OCC#Cc3cccc4c3C(C)(C)c3nc(=O)c5c(Cl)cccc5n3-4)no2)C(C)C)cc1 [Compound B130, (2S,4R)-1-((R)-2-(3-((3-(4-chloro-7,7-dimethyl-5-oxo-5,7-dihydroindolo[1,2-a]quinazolin-8-yl)prop-2-yn-1-yl)oxy)isoxazol-5-yl)-3-methylbutanoyl)-4-hydroxy-N-((S)-1-(4-(4-methylthiazol-5-yl)phenyl)ethyl)pyrrolidine-2-carboxamide]
SMARCA2
  DC50: < 100 nM
  Dmax: > 90%
SMARCA4
  DC50: 100 to 500 nM
  Dmax: 50 to 69%
